In patent publication US8962660B2 (Bristol-Myers Squibb Company, priority 2013, dated 2015):
pEC50: −log10 of the molar value.

How the values were obtained:
human GPR120 = target: T1, human GPR120 (Homo sapiens, UniProt Q5NUL3); assay: GPR120 pERK AlphaScreen SureFire assay (human); format: cell-based; details: CHO cells stably transfected with short form of human GPR120
T1 construct: expressed in transfected cells; host or cells: CHOA12 cells
T1 sequence (Q5NUL3 1-361): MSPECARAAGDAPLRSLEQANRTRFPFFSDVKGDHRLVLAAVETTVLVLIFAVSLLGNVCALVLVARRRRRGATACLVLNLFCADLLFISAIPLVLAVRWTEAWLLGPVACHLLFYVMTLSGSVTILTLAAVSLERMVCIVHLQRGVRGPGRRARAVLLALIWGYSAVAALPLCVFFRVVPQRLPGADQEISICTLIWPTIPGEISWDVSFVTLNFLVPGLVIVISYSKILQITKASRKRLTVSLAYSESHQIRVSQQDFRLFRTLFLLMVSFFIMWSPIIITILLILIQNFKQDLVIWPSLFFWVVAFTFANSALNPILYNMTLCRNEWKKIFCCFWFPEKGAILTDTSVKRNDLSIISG
Summary of the method: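 CHOA12 cells stably expressing short-form human GPR120, serum-starved 2 h, were stimulated 7 min at 37 °C with compound (33.33 μM–0.56 nM, 11-point). pERK read by AlphaScreen SureFire; activation normalized to 50 μM linolenic acid and DMSO blank, EC50 by 4-parameter fit.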

C57BL/6 mice = assay: Acute oral glucose tolerance test; format: in vivo; details: oral glucose tolerance test in mice, dose of 30 mg/kg, AUC t=0-120 min vs vehicle
Description: 1) Acute Oral Glucose Tolerance Test
C57BL/6 mice were housed individually and fed a standard rodent chow diet. At approximately 11 weeks age, after a 5 h fast, these mice were orally treated with vehicle or test compounds 60 min before a glucose challenge (2 g/kg). Blood glucose levels were determined from tail bleeds taken at −60, 0, 15, 30, 60 and 120 min after the glucose challenge. The blood glucose excursion profile from t=0-120 min was used to calculate an area under the curve (AUC) for compound treatment. This AUC for compound treatment is compared to vehicle treatment.
In an oral glucose tolerance test in mice at dose of 30 mg/kg, Examples 6, 14 and 80 reduced glucose AUC levels by 40%, 30% and 60% respectively.

pEC50 (human GPR120) | SMILES | reduced glucose AUC levels (C57BL/6 mice) [%]
6.46 | O=C(O)[C@H]1C[C@@H]1CCC12CCC(c3cccc(Oc4ccccc4)c3)(CC1)OC2 (single isomer, unassigned) [Example 14] | 30
6.25 | O=C(O)COCCC12CCC(c3cccc(Oc4ccccc4)c3)(CC1)OC2 [Example 6, 2-(2-(1-(3-Phenoxyphenyl)-2-oxabicyclo[2.2.2]octan-4-yl)ethoxy)acetic acid] | 40
6.66 | Cc1ccc(Oc2cc(F)cc(C34CCC(CCOCC(=O)O)(CC3)CO4)c2)cc1F [Example 80, 2-(2-(1-(3-fluoro-5-(3-fluoro-4-methylphenoxy)phenyl)-2-oxabicyclo [2.2.2]octan-4-yl)ethoxy) acetic acid] | 60
5.66 | O=C(O)C1CC1CCCC12CCC(c3cccc(Oc4ccccc4)c3)(CC1)OC2 (stereo not shown) [Example 120, 2-(3-(1-(3-Phenoxyphenyl)-2-oxabicyclo[2.2.2]octan-4-yl)propyl) cyclopropane carboxylic acid] | –
